System: multiresistant Dd2 strain of Plasmodium falciparum
Assay: Antiplasmodial activity against Dd2 strain of Plasmodium falciparum ([8-3H]hypoxanthine incorporation)
Type: cell-based
Conditions: 66 h, P. falciparum Dd2, 48 h + 18 h with [8-3H]hypoxanthine, 50% parasite growth inhibition, read-out: Antiplasmodia activity (IC50 class)
Protocol: For the determination of the antiplasmodial activity of the compounds described above, the multiresistant Dd2 strain of Plasmodium falciparum was used. The incorporation of [8-^3H]hypoxanthine into the parasitic nucleic acids was measured. The plasmodia were incubated at 0.3% parasitaemia and an erythrocyte haematocrit of 2.5% in the presence of different concentrations of the compounds in a final volume of 200 μl. The medium employed was RPMI 1640 which contained 10% of heat-treated human serum and 3 mg/l of gentamycin. In the incubations, the concentrations of the compounds varied from 0.001 to 100 μM. After 48 h, each batch was treated with 50 μl of [8-^3H]hypoxanthine (1 mCi/ml) and incubated for a further 18 h. The cells were filtered off, washed and suspended in 20 μl of scintillation fluid. The radioactive hypoxanthine absorbed by the parasites was then quantified using a scintillation counter. The results were presented graphically and the IC50 value was determined using a fitting function. The value IC50, the ‘inhibition constant’, indicates the value in μMol/l at which 50% parasite growth inhibition occurs (R. E. Desjardins, et al., Antimicrobiol. Agent Chemother. 16, pp. 710-718, 1979; J. D. Chulay, et al., Exp. Parasitol. 55, pp. 138-146, 1983).

Row | SMILES | IC50 [nM]
1 | CCCCN1CCN(C(=N)c2cccc(NC(=O)Nc3ccc(S(=O)(=O)NCc4ccccc4)cc3)c2)CC1 [Compound 36, N-benzyl-4-(3-(3-((4-butylpiperazin-1-yl)(imino)methyl)phenyl)ureido)benzenesulfonamide] | 210 to 990
2 | C=CCN1CCN(C(=N)c2cccc(NC(=O)Nc3ccc(S(=O)(=O)NCc4ccc(S(N)(=O)=O)cc4)cc3)c2)CC1 [Compound 39, 4-(3-(3-((4-allylpiperazin-1-yl)(imino)methyl)phenyl)ureido)-N-(4-sulfamoylbenzyl)benzenesulfonamide] | < 20
3 | CCCCN1CCN(C(=N)c2cccc(NC(=O)Nc3ccc(S(=O)(=O)NNc4ccc(S(N)(=O)=O)cc4)cc3)c2)CC1 [Compound 40, 4-(2-(4-(3-(3-((4-butylpiperazin-1-yl)(imino)methyl)phenyl)ureido)phenylsulfonyl)hydrazinyl)benzenesulfonamide] | ≥ 1000
4 | CCCCN1CCN(C(=N)c2cccc(NC(=O)Nc3ccc(S(=O)(=O)NC(C)c4ccc(S(N)(=O)=O)cc4)cc3)c2)CC1 (stereo not drawn) [Compound 42, 4-(3-(3-((4-butylpiperazin-1-yl)(imino)methyl)phenyl)ureido)-N-(1-(4-sulfamoylphenyl)ethyl)benzenesulfonamide] | 210 to 990
5 | N=C(c1cccc(NC(=O)Nc2ccc(S(=O)(=O)NCc3ccc(S(N)(=O)=O)cc3)cc2)c1)N1CCN(Cc2ccncc2)CC1 [Compound 45, 4-(3-(3-(imino (4-(pyridin-4-ylmethyl)piperazin-1-yl)methyl)phenyl)ureido)-N-(4-sulfamoylbenzyl)benzenesulfonamide] | 210 to 990
6 | N=C(c1cccc(NC(=O)Nc2ccc(S(=O)(=O)NCc3ccc(S(N)(=O)=O)cc3)cc2)c1)N1CCCC1 [Compound 46, 4-(3-(3-(imino(pyrrolidin-1-yl)methyl)phenyl)ureido)-N-(4-sulfamoylbenzyl)benzenesulfonamide] | 20 to 200
7 | CCN(CC)CCN(C)C(=N)c1cccc(NC(=O)Nc2ccc(S(=O)(=O)NCc3ccc(S(N)(=O)=O)cc3)cc2)c1 [Compound 47, N-(2-(diethylamino)ethyl)-N-methyl-3-(3-(4-(N-(4-sulfamoylbenzyl)sulfamoyl)phenyl)ureido)benzimidamide] | 20 to 200
8 | N=C(c1cccc(NC(=O)Nc2ccc(S(=O)(=O)NCc3ccc(S(N)(=O)=O)cc3)cc2)c1)N1CCC(O)CC1 [Compound 48, 4-(3-(3-((4-hydroxypiperidin-1-yl)(imino)methyl)phenyl)ureido)-N-(4-sulfamoylbenzyl)benzenesulfonamide] | 20 to 200
9 | CN(C)C1CCN(C(=N)c2cccc(NC(=O)Nc3ccc(S(=O)(=O)NCc4ccc(S(N)(=O)=O)cc4)cc3)c2)C1 (stereo not drawn) [Compound 49, 4-(3-(3-((3-(dimethylamino)pyrrolidin-1-yl)(imino)methyl)phenyl)ureido)-N-(4-sulfamoylbenzyl)benzenesulfonamide] | 20 to 200
10 | N=C(c1cccc(NC(=O)Nc2ccc(S(=O)(=O)NCc3ccc(S(N)(=O)=O)cc3)cc2)c1)N1CCCC1CN1CCCC1 (stereo not drawn) [Compound 50, 4-(3-(3-(imino(2-(pyrrolidin-1-ylmethyl)pyrrolidin-1-yl)methyl)phenyl)ureido)-N-(4-sulfamoylbenzyl)benzenesulfonamide] | 20 to 200
11 | CC(C)(C)OC(=O)N1CCN(C(=N)c2cccc(NC(=O)Nc3ccc(S(=O)(=O)NCc4ccc(S(N)(=O)=O)cc4)cc3)c2)CC1 [Compound 51, tert-butyl 4-(imino(3-(3-(4-(N-(4-sulfamoylbenzyl)sulfamoyl)phenyl)ureido)phenyl)methyl)piperazine-1-carboxylate] | 210 to 990
12 | CCCCCN1CCN(C(=N)c2cccc(NC(=O)Nc3ccc(S(=O)(=O)NCc4ccc(S(N)(=O)=O)cc4)cc3)c2)CC1 [Compound 55, 4-(3-(3-(imino(4-pentylpiperazin-1-yl)methyl)phenyl)ureido)-N-(4-sulfamoylbenzyl)benzenesulfonamide] | < 20

Reference: patent US8343963B2, “Sulfamoyl-phenyl-ureido compounds and their use as medicament” (4SC AG, priority 2009, dated 2013)
